Reference: patent publication US8361483B2, “Epinecidin-1 as a vaccine adjuvant for enhancing immune responses” (priority 2011, dated 2013)
“Also recorded” adds a separate entry of the source. Where no end group is shown, it is not given here.

How the values were obtained:
BHK-21 cells = assay: Cell proliferation assay, Epi-1 alone on BHK-21 cells; format: cell-based, baby hamster; details: Epi up to 1 μg/ml, 48 h, n=3
Excerpt: Baby hamster kidney (BHK)-21 cells were purchased and maintained as per American Type Culture Collection (ATCC no. CCL10, Manassas, Va., USA) instructions. Female C3H/HeN mice, purchased from the National Laboratory Animal Breeding and Research Center (Taiwan) and BioLASCO (Taipei, Taiwan), were housed at the Laboratory Animal Facility, National Taiwan Ocean University NTOU; Keelung, Taiwan). Mice were maintained in pathogen-free sterile isolators according to institutional guidelines, and all food, water, caging, and bedding were sterilized before use. All procedures were approved by the Animal Care and Use Committee of NTOU. The 50% lethal dose (LD50) of JEV in female C3H/HeN mice was determined. The Beijing-1 JEV strain was maintained in suckling mouse brains as previously described.
BHK-21 cells in 48-well plates were assayed with CellTiter 96 Aqueous One Solution (Promega, Madison, Wis., USA) following the vendor's instructions. Epi-1 was administered together with Japanese encephalitis virus (JEV) as co-treatment; Epi-1 was administered 24 h prior to (prophylaxis) or after (curative) the JEV inoculation. After blank value subtraction, the percentage survival against control cells was calculated. […]
The effects of Epi-1 on JEV in BHK-21 cells were studied. […] At 48 h, cell viability of JEV infection was determined (FIG. 1a). […]

[1] = Toxicity of Epi-1 alone injected i.p. in adult mice
Protocol: Six-week-old adult C3H/HeN mice were randomly divided into five groups of 10 mice each. […] After 14 days, a re-challenge was carried out on surviving mice with 50× the LD50 of JEV. Mouse survival and activity were monitored on a daily basis for up to 25 days after the primary injection. For serological studies, serum was collected on days 4, 7, and 21 after treatment. A similar approach was followed to test immunized mice.
JEV was co-injected with or without Epi-1 at various dosages (50, 100, and 200 μg/ml) into adult mice and subsequently boosted (a second JEV challenge without Epi-1) on day 14. The survival rate of mice was recorded for 25 days.

## GFIFHIIKGLFHAGKMIHGLV [Epi-1, epinecidin-1]
BHK-21 cells
  cell viability: did not affect cell viability; also recorded: no detectable cytotoxicity
[1]; 200 μg/ml Epi-1 alone i.p., n=10
  survival and behaviour: all mice survived and behaved normally
[1]; Epi-1 alone, adult mice
  toxic effects: No toxic effects were noted; also recorded: no detectable cytotoxicity
